Assay results: PubChem BioAssay (NCI)
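Dose response: 5 concentrations. Exposure: 48 h. Format: 96-well plates. Endpoint: linear interpolation; highest concentration if not reached. Definition used: TGI = concentration required for complete inhibition of growth.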 Where a SMILES comes first, the peptide text is derived from it. [ ]: non-standard residue; d: D form. pGlu = O=C1CC[CH](C(=O)O)N1; Thz = O=C(O)[CH]1CSCN1

What was measured:
Assay in all cases: NCI-60 cell line screen, 48 h
[1] = test system: CCRF-CEM leukemia
[2] = test system: KM12 colon
[3] = test system: MDA-MB-435
[4] = test system: NCI-H23 lung
[5] = test system: NCI-H522 lung
[6] = test system: NCI/ADR-RES ovarian
[7] = test system: OVCAR-4 ovarian
[8] = test system: OVCAR-5 ovarian
[9] = test system: RXF 393 renal
[10] = test system: SK-MEL-2 melanoma
[11] = test system: HCC-2998 colon

SMILES | TGI [1] [µM] | TGI [2] [µM] | TGI [3] [µM] | TGI [4] [µM] | TGI [5] [µM] | TGI [6] [µM] | TGI [7] [µM] | TGI [8] [µM] | TGI [9] [µM] | TGI [10] [µM] | TGI [11] [µM]
Cc1ncn(-c2ccccc2O)c1C | > 100 | > 100 | > 100 | > 100 | > 100 | > 100 | > 100 | > 100 | > 100 | > 100 | –
Cc1nc(OCc2ccccc2)c2ncn(CCO)c2n1 | > 100 | > 100 | > 100 | > 100 | > 100 | > 100 | > 100 | > 100 | > 100 | > 100 | –
CC(C)(C)C1=C(Br)C(F)(C(C)(C)C)OP1(=O)c1ccccc1 (configuration not stated) | – | 33.7 | 29.9 | 37.9 | 30.8 | 30.8 | 23 | 36.6 | 24.5 | 36.5 | 28.4
CC1C(C)(C)C23CC12C1(OCCO1)C3Br (configuration not stated) | > 100 | > 100 | > 100 | > 100 | – | > 100 | > 100 | > 100 | > 100 | – | > 100
CCCn1cc2c(=O)[nH]c(SC)nc2n1 | > 100 | > 100 | – | > 100 | – | – | > 100 | > 100 | > 100 | > 100 | > 100
Cc1ccc2nc3ccccc3c(C3C4C(=O)N(c5ccc(F)cc5)C(=O)C4ON3C(C(N)=O)c3ccccc3)c2c1 (configuration not stated) | > 100 | > 100 | 99 | > 100 | 57.8 | 90.2 | > 100 | > 100 | > 100 | > 100 | –
COC(NC(=O)Nc1ccc(C)cc1)(C(F)(F)F)C(F)(F)F | > 100 | > 100 | > 100 | 89.8 | 60.1 | 84.7 | > 100 | > 100 | 71.7 | – | –
CCCCSC1=N/C(=C\c2ccccc2O)C(=O)N1 | – | > 100 | > 100 | > 100 | > 100 | > 100 | > 100 | > 100 | > 100 | > 100 | > 100
C=C(/C=C/C=C(\C)CCC=C(C)C)[C@@H]1CC[C@]2([C@H](CCCO)/C(=C(/C)C=O)CC[C@]2(C)O)[C@@H]1O | 48.8 | 15.4 | – | 45.7 | 33 | – | – | > 100 | 37.8 | 38.5 | 35.6
CCOC(=O)C12CCC(=O)N1N(C)c1ncccc1N2 (configuration not stated) | > 100 | > 100 | > 100 | > 100 | > 100 | > 100 | > 100 | > 100 | > 100 | – | > 100
COc1ccc(C(=O)/C=C/c2ccc(OCCCCCCCCCCOc3ccc(/C=C/C(=O)c4ccc(OC)cc4)cc3)cc2)cc1 | > 100 | > 100 | > 100 | – | – | > 100 | > 100 | > 100 | > 100 | > 100 | > 100
Cc1cn(C2CC(n3cc(Cn4ccc(=O)[nH]c4=O)nn3)C(CO)O2)c(=O)[nH]c1=O (configuration not stated) | > 100 | > 100 | > 100 | > 100 | – | > 100 | > 100 | > 100 | > 100 | > 100 | > 100
Cc1ccc(S(=O)(=O)n2cc(C=O)c(-c3cn(S(=O)(=O)c4ccc(C)cc4)cc3-c3cn(S(=O)(=O)c4ccc(C)cc4)cc3C=O)c2)cc1 | > 100 | > 100 | > 100 | > 100 | > 100 | > 100 | – | > 100 | > 100 | > 100 | > 100
CC1OC(OC2C(O)COC(OC3C(C)OC(OC4C(OC(=O)[C@]56CCC(C)(C)C[C@@H]5C5=CCC7[C@@]8(C)C[C@H](O)[C@H](OC9OC(CO)C(O)C(O)C9O)[C@@](C)(CO)[C@@H]8CC[C@@]7(C)[C@]5(C)CC6)OCC(O)C4O)C(O)C3O)C2O)C(O)C(O)C1O (some centres not stated) | 45.8 | > 100 | 57.7 | 51.2 | > 100 | 44.9 | 52.1 | 36.4 | 33.5 | – | 38
COc1ccc2[nH]cc(CCNC(=O)[C@H](Cc3ccc(O)cc3)NC(=O)[C@@H](NCC(F)(F)F)C(C)C)c2c1 | > 100 | > 100 | 83.3 | > 100 | > 100 | > 100 | > 100 | > 100 | > 100 | > 100 | –
O=[N+]([O-])c1ccc(-c2csc(N=Nc3c(O)[nH]c4ccccc34)n2)cc1 | – | > 100 | > 100 | > 100 | – | > 100 | > 100 | 45.4 | – | 84.2 | 50.5

SMILES | TGI [1] [µM] | TGI [2] [µM] | TGI [3] [µM] | TGI [4] [µM] | TGI [5] [µM] | TGI [6] [µM] | TGI [7] [µM] | TGI [8] [µM] | TGI [9] [µM] | TGI [10] [µM] | TGI [11] [µM]
O=C1CCC(C(=O)N2CSCC2C(=O)O)N1 (configuration not stated) ([pGlu]-[Thz]-OH; configuration not given here) | > 100 | > 100 | > 100 | > 100 | > 100 | > 100 | – | > 100 | > 100 | > 100 | > 100
COc1ccc(/C=N\N(C)Cc2cccc3ccsc23)cc1 | > 100 | > 100 | > 100 | > 100 | > 100 | > 100 | > 100 | > 100 | > 100 | – | > 100
COC(=O)C(Cc1c[nH]c2ccccc12)NC(=O)C(Cc1cnc[nH]1)NC(=O)C1CCC(=O)N1C(=O)OCc1ccccc1 (configuration not stated) | > 100 | > 100 | – | > 100 | – | – | – | > 100 | > 100 | > 100 | > 100
Cc1nc2c(c(N3CCN(C)CC3)n1)Cc1ccccc1-2 | > 100 | > 100 | > 100 | > 100 | 56.4 | > 100 | – | > 100 | > 100 | > 100 | –
S=P1(Sc2ccccc2)Oc2ccc3ccccc3c2-c2c(ccc3ccccc23)O1 | > 100 | > 100 | – | > 100 | > 100 | > 100 | > 100 | > 100 | > 100 | > 100 | > 100
O=c1[nH]c(Nc2ccc(Br)c(C(F)(F)F)c2)nc2nc[nH]c12 | > 100 | > 100 | > 100 | > 100 | 63.5 | > 100 | > 100 | > 100 | – | 44.4 | 40.5
c1ccc2c3c(ccc2c1)-c1[nH]ncc1CCO3 | > 100 | > 100 | – | 75.7 | > 81.5 | > 100 | > 84.9 | > 86.2 | > 74.2 | 85.3 | > 100
CCOP(=O)(CC(=O)C1CC1)OCC | > 100 | > 100 | – | > 100 | > 100 | > 100 | > 100 | > 100 | – | > 100 | > 100
O=[N+]([O-])c1ncc(N(CCO)CCO)s1 | 56.9 | > 100 | > 100 | > 100 | 35.6 | – | > 100 | > 100 | 33.4 | 45.3 | > 100
CC(C)(C)OC(=O)NCC(CNC(=O)OC(C)(C)C)C(N)=O | > 100 | > 100 | > 100 | > 100 | > 100 | > 100 | > 100 | > 100 | > 100 | – | > 100
CC(NC(=O)C1CCC(=O)N1)C(=O)N1CCCC1C(N)=O (stereo not drawn) ([pGlu]-Ala-Pro-NH2; configuration not given here) | > 100 | > 100 | > 100 | > 100 | > 100 | > 100 | > 100 | > 100 | > 100 | – | > 100
COc1c2c(c3c(c1OC)c(=O)c1ccccc1n3C)OCO2 | > 100 | > 100 | > 100 | > 100 | > 100 | > 100 | > 100 | > 100 | – | > 100 | > 100
Cc1c(NC(=S)Nc2ccc([N+](=O)[O-])cc2)c(=O)n(-c2ccccc2)n1C | > 100 | > 100 | > 100 | > 100 | > 100 | > 100 | – | > 100 | > 100 | – | > 100
CC(C)(C)c1ccc2c(c1)OP1(Oc3c(Cl)cc(Cl)c4cccnc34)(O2)Oc2ccc(C(C)(C)C)cc2O1 | > 100 | 20.4 | – | 21.8 | 8.45 | 24.6 | 23.3 | 27.5 | 30 | 22.8 | 23.4
O=P1(c2ccccc2)C(c2ccccc2)CCC1c1ccccc1 (configuration not stated) | > 100 | > 100 | > 100 | > 100 | > 100 | – | – | – | > 100 | – | > 100
